Data as given in US20220125784A1, “METHODS AND COMPOUNDS FOR INHIBITION OF INACTIVATION OF VOLTAGE-GATED SODIUM CHANNELS” (SIMON FRASER UNIVERSITY, priority 2019, published 2022).
Where two headings read alike, the source gives them in different places. Values belong to the compound of their own block, whether it stands above or below them.

Assays:
Assay type in all cases: cell-based
[1] = molecular target: T1, cardiac (Nav1.5) sodium channel (Homo sapiens, UniProt Q14524); experiment: High-throughput patch clamp (QPatch/Qube 384), double voltage-pulse protocol, stable HEK293 Nav1.5; details: for deceleration of fast inactivation onset kinetics compared to control: preconditioning −120 mV
T1 construct: expressed in transfected cells
T1 sequence (Q14524 whole entry): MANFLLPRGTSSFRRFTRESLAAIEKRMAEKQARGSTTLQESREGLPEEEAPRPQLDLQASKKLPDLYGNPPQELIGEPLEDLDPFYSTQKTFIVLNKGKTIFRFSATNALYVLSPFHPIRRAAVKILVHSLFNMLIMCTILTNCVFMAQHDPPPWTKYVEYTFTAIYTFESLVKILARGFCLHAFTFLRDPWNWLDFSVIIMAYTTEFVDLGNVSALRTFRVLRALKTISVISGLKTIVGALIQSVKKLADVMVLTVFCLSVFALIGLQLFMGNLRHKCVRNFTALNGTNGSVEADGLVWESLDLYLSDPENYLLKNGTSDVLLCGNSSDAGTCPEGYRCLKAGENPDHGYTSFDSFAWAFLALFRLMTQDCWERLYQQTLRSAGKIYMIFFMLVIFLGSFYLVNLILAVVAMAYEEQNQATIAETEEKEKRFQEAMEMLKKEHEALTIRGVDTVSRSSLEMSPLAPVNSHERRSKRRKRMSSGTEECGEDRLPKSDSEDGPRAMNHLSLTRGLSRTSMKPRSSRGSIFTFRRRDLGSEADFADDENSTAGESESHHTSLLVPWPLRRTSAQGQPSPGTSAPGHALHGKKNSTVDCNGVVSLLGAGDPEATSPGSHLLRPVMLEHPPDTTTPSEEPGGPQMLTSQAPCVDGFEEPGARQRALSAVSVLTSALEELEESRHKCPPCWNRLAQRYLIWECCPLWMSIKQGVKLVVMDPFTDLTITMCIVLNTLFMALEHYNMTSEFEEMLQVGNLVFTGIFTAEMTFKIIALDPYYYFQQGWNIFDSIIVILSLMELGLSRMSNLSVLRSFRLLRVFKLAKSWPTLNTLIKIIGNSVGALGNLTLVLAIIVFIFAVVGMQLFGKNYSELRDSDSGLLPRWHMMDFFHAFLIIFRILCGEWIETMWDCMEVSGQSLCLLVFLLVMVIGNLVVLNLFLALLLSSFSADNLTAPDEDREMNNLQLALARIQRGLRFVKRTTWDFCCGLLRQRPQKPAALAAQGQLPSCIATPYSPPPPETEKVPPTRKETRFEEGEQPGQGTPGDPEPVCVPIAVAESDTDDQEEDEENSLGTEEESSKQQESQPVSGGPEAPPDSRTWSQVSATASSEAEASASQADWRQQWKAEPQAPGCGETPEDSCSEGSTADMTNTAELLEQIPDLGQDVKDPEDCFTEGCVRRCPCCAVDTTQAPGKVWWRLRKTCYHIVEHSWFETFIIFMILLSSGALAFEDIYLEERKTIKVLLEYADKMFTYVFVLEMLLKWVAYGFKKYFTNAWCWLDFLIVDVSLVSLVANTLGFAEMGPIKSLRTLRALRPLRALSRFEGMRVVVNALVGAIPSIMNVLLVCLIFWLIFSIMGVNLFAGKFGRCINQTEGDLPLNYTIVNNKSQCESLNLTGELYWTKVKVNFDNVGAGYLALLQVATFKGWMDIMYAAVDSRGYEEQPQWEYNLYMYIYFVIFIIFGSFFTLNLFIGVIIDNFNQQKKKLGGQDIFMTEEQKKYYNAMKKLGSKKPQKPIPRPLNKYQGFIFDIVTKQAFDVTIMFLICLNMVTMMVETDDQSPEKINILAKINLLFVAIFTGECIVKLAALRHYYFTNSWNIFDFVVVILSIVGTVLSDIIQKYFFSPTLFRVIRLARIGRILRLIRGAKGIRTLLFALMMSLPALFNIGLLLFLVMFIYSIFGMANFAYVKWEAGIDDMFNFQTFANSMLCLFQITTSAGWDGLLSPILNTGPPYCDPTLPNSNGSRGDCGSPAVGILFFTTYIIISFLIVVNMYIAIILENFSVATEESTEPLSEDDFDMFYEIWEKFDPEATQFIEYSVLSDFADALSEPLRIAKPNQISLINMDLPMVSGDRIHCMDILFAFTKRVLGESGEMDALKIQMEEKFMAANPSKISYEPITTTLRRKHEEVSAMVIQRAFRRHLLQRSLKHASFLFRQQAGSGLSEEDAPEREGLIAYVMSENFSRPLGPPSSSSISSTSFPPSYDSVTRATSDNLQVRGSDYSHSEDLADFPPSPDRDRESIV
Protocol: (§1) In another set of studies, we used high-throughput patch clamp techniques using the QPatch (Qube) 384 to screen compounds against both neuronal and cardiac sodium channels. We used a different electrophysiology assay (double voltage-pulse protocol; FIG. 3C) to detect potentiators, inhibitors, and compounds that do both. The protocol assesses these parameters at both rest and partially inactivated holding potentials. For this assay, we used nine compounds from Table 2 that were diluted to 50 μM in DMSO for biophysical assessment of channel gating. The extracellular solution used in these experiments was Ringer solution.
(§2) The nine compounds were screened against the wild type (WT) cardiac (Nav1.5) and neuronal (Nav1.1) sodium channel α-subunits stably expressed in Human Embryonic Kidney (HEK293) along with the β1-subunit.
(§3) Currents were assessed by a test pulse of 0 mV from a holding potential at rest (−120 mV) before preconditioning at the appropriate V1/2 for the sodium channel subtype (V1/2=−90 mV and V1/2=−65 mV for Nav1.5 and Nav1.1, respectively) for 10 s. Parameters were tested following 5 min of incubation with the compounds and normalized to control (vehicle). Peak current, the time constant of inactivation, and the area under the curve (AUC) were measured.

[2] = molecular target: T2, neuronal (Nav1.1) sodium channel (Homo sapiens, UniProt P35498); experiment: High-throughput patch clamp (QPatch/Qube 384), double voltage-pulse protocol, stable HEK293 Nav1.1
T2 construct: expressed in transfected cells
Protocol: as §1, §2, §3

[3] = molecular target: T3, WT Nav1.5-α subunits (Homo sapiens, UniProt Q14524); experiment: Whole-cell patch clamp, use-dependence (slow inactivation) protocol at 6 Hz in transiently transfected HEK293 cells
T3 construct: expressed in transfected cells; host or cells: HEK293 (transient transfection)
T3 sequence (Q14524 whole entry): as above
Protocol: (§4) In one set of studies, we used a whole-cell patch clamp technique with single voltage-pulse protocols (FIGS. 3A-B) to characterize compounds ZINC38767171, ZINC39699427, ZINC40014265, ZINC64470729, ZINC64470737 and ZINC64470745. Whole-cell patch clamp was performed in extracellular solution containing (in mM): 140 NaCl, 4 KCl, 2 CaCl2, 1 MgCl2, and 10 HEPES (pH 7.4 adjusted with CsOH). The intracellular pipettes were dipped in dental wax and thermally polished to attain a resistance of 1.0-1.5 MΩ. The intracellular solutions contained (in mM): 130 CsF, 10 NaCl, 10 HEPES, and 10 EGTA titrated to pH 7.4. The six compounds, ZINC38767171, ZINC39699427, ZINC40014265, ZINC64470729, ZINC64470737 and ZINC64470745, chosen for electrophysiology characterization, ordered from MolPort (Easy compound ordering services), were diluted to 10 μM, 50 μM, and 100 μM in extracellular solution for biophysical assessment of channel gating.
(§5) The six compounds were screened against wild type (WT) Nav1.5-α subunits at the optimal physiological temperature of 37° C. Human Embryonic Kidney (HEK293) cells were transfected with WT Nav1.5-α subunits (transient transfections). The α subunits were co-expressed with the β1 subunit and eGFP (enhanced green fluorescence protein) in a 2:1:2 ratio, respectively.
Slow inactivation (SI) was indirectly determined by measuring use-dependence, which is a physiologically-relevant protocol. The protocol includes a series of 500 110 ms depolarizing pulses to 0 mV followed by a 55 ms-90 mV recovery pulse at a frequency 6 Hz. With repetitive depolarizations, Nav1.5 channels accumulate into slow inactivation.

[4] = molecular target: T3, WT Nav1.5-α subunits; experiment: Whole-cell patch clamp, single voltage-pulse protocol (peak INa, conductance, fast inactivation) in transiently transfected HEK293 cells; details: for Peak INa −20 mV: normalized peak INa, 37° C.
Protocol: as §4, §5
Conductance was measured by a protocol that depolarized the membrane from −100 mV to +80 mV in increments of +5 mV for 19 ms. Prior to the test pulse, channels were allowed to recover from fast inactivation at −130 mV for 197 ms. The tested compounds had no effect on the conductance midpoint (FIGS. 6A-F).
At voltages greater than −50 mV, the fast inactivation T values were calculated from the mono-exponential fit to the decay of sodium current.

[5] = HEK293, holding potential −120 mV, read-out: Normalized inhibition of peak sodium current
[6] = 50 μM, holding potential −120 mV

effect on tau of inactivation from holding potential −120 mV ([2]; 50 μM): accelerates inactivation
normalized area under curve (AUC) ratio of activated sodium current [2, 6]: substantially reduces
inhibition at 50 µM [2, 5]: ~32%
inhibition at 50 µM ([2]; HEK293, −65 mV for 10 s, read-out: Normalized inhibition of peak sodium current after 10 s pulse to mid-voltage potential): ~80%
Compound: Cc1nc(-n2cccc2)sc1C(=O)N=c1[nH]c2ccccc2[nH]1 [ZINC12323863, N-(1H-benzimidazol-2-yl)-4-methyl-2-pyrrol-1-yl-thiazole-5-carboxamide]
deceleration of fast inactivation onset kinetics compared to control ([1]; 50 μM): 1.5 fold
inhibition at 50 µM [1, 5]: ~32%
inhibition at 50 µM ([1]; HEK293, −90 mV for 10 s, read-out: Normalized inhibition of peak sodium current after 10 s pulse to mid-voltage potential): ~80%

Compound: CN(C)[C@@H](CNC(=O)c1ccc2c(c1)=NC(=O)C(=O)N=2)c1ccco1 [ZINC40014265, N-[(2S)-2-(dimethylamino)-2-(2-furyl)ethyl]-2,3-dioxo-quinoxaline-6-carboxamide]
effect on peak INa [1, 6]: did not inhibit peak sodium current
normalized area under curve (AUC) ratio of activated sodium current [1, 6]: slightly increased
deceleration of fast inactivation onset kinetics compared to control ([1]; 50 μM): 1.5 fold
UDI Block Slope ([3]; Hill curve slope): 0.511
IC50 ([3]; Hill curve, use-dependence at 6 Hz, read-out: UDI Block IC50): 269 µM
% Block −20 mV ([4]; 10 μM): −20.00%
fast inactivation onset time constant FI +10 mV ([4]; 10 μM): 0.23 ± 0.02 ms
fast inactivation onset time constant FI −10 mV ([4]; 10 μM): 0.33 ± 0.03 ms
fast inactivation onset time constant FI −30 mV ([4]; 10 μM): 0.63 ± 0.07 ms
fast inactivation onset time constant FI −50 mV ([4]; 10 μM): 2.98 ± 0.84 ms
Peak INa −20 mV ([4]; 10 μM): −0.80 ± 0.06
% Block −20 mV ([4]; 50 μM): −37.00%
fast inactivation onset time constant FI +10 mV ([4]; 50 μM): 0.25 ± 0.03 ms
fast inactivation onset time constant FI −10 mV ([4]; 50 μM): 0.37 ± 0.05 ms
fast inactivation onset time constant FI −30 mV ([4]; 50 μM): 0.69 ± 0.11 ms
fast inactivation onset time constant FI −50 mV ([4]; 50 μM): 2.18 ± 0.70 ms
Peak INa −20 mV ([4]; 50 μM): −0.63 ± 0.06
% Block −20 mV ([4]; 100 μM): −41.00%
fast inactivation onset time constant FI +10 mV ([4]; 100 μM): 0.26 ± 0.07 ms
fast inactivation onset time constant FI −10 mV ([4]; 100 μM): 0.37 ± 0.09 ms
fast inactivation onset time constant FI −30 mV ([4]; 100 μM): 0.69 ± 0.17 ms
fast inactivation onset time constant FI −50 mV ([4]; 100 μM): 2.17 ± 0.73 ms
Peak INa −20 mV ([4]; 100 μM): −0.59 ± 0.06
Peak INa Slope ([4]; Hill curve slope): 1.064
IC50 ([4]; Hill curve, single voltage-pulse protocol): 12.6 µM
